In patent publication US6281342A, “Pradimicin compounds” (Bristol-Myers Squibb Company, priority 1994, dated 2001):
In brackets after ≈: the same amount, converted by molar mass. Where two headings read alike, the source gives them in different places.

Legend:
Candida albicans A9540 [1] = experiment: MIC, two-fold agar dilution, C. albicans A9540; type: cell-based
Procedure: (§1) Minimum inhibitory concentrations (MICs) of nine 4'-N-substituted pradimicin derivatives were determined by two-fold agar dilution method on phosphate-buffered yeast morphology agar (YMA, pH 7.0, Difco Laboratories). A 5-μl of fungal cell suspension containing 2×10^6 cells/ml (2×10^7 cells/ml for Trichophyton mentagrophytes) were spotted on the surface of the agar plates containing test compound. MICs were recorded after 40-hour incubation at 28° C. except for T. mentagrophytes, which required 60-hour incubation to produce visually evaluable growth on the drug-free control plates and were defined as the lowest antibiotic concentrations showing no growth or less than five discrete colonies per spot.
(§2) Medium: yeast morphology agar + 1/15 M phosphate buffer (pH 7.0)
(§3) Incubation conditions: 28° C., 40 hours (C. albicans ATCC 38247 & T.
(§4) Medium: Yeast morphology agar + 1/15 phosphate buffer (pH 7.0).

[2] = test system: Trichophyton mentagrophytes #4329; experiment: MIC, two-fold agar dilution, T. mentagrophytes #4329; type: cell-based
Procedure: as §1, §2, §3
(§5) mentagrophytes #4329: 28° C., 60 hours).
as §4

Candida albicans 83-2-14 = experiment: MIC, two-fold agar dilution, C. albicans 83-2-14; type: cell-based; conditions: 83214, YMA pH 7.0, 28° C., 40 hours
Procedure: as §1, §2, §3, §4

[3] = test system: Candida albicans ATCC 38247; experiment: MIC, two-fold agar dilution, C. albicans ATCC 38247; type: cell-based; conditions: ATCC38247, YMA pH 7.0, 28° C., 60 hours (table footnote)
Procedure: as §1, §2, §3, §5, §4

[4] = test system: Candida albicans IAM 4888; experiment: MIC, two-fold agar dilution, C. albicans IAM 4888; type: cell-based; conditions: IAM4888, YMA pH 7.0, 28° C., 40 hours
Procedure: as §1, §2, §3, §4

[5] = test system: Saccharomyces cerevisiae ATCC 9763; experiment: MIC, two-fold agar dilution, S. cerevisiae ATCC 9763; type: cell-based; conditions: ATCC9763, YMA pH 7.0, 28° C., 40 hours
Procedure: as §1, §2, §3, §4

[6] = test system: Cryptococcus neoformans IAM 4514; experiment: MIC, two-fold agar dilution, C. neoformans IAM 4514; type: cell-based; conditions: IAM4514
Procedure: as §1, §2, §3, §4

[7] = test system: Candida tropicalis IFO 10241; experiment: MIC, two-fold agar dilution, C. tropicalis IFO 10241; type: cell-based; conditions: IFO10241, YMA pH 7.0, 28° C., 40 hours
Procedure: as §1, §2, §3, §4

[8] = test system: Cryptococcus neoformans D49; experiment: MIC, two-fold agar dilution, C. neoformans D49; type: cell-based; conditions: YMA pH 7.0, 28° C., 40 hours
Procedure: as §1, §2, §3, §4

[9] = test system: Candida albicans ATCC 32354; experiment: MIC, two-fold agar dilution, C. albicans ATCC 32354; type: cell-based; conditions: ATCC32354, YMA pH 7.0, 28° C., 40 hours
Procedure: as §1, §2, §3, §4

Candida tropicalis 85-8 = experiment: MIC, two-fold agar dilution, C. tropicalis 85-8; type: cell-based; conditions: 858, YMA pH 7.0, 28° C., 40 hours
Procedure: as §1, §2, §3, §4

Candida albicans A9540 [10] = experiment: animal or person; type: in vivo, male ICR mice infected with Candida albicans A9540
Procedure: (§6) The in vivo therapeutic efficacies of seven 4'-N-substituted pradimicin derivatives, KHM-1, KHM-2, KHM-3, KHM-4, KHM-5, KHM-6 and KHM-7 were evaluated in the mouse infected with Candida albicans A9540 and Aspergillus fumigatusIAM 2034. Groups of five specific-pathogen-free male ICR mice weighing 20-25 g at each dose level were intravenously infected with approximately 10 times the 50% lethal dose of C. albicans A9540 (1×10^6 cells/mouse) or A. fumigatus IAM 2034 (1×10^7 cells/mouse). Immediately after the fungal infection, test compounds dissolved with 10% DMSO in distilled water were intravenously given to the mouse at the dosed volume of 0.1 ml/10 g of body weight. […] Untreated control animals died 7 to 13 days post-infection.

[11] = test system: Aspergillus fumigatus IAM 2034; experiment: Therapeutic efficacy in Aspergillus fumigatus systemic infection in mice; type: in vivo, male ICR mice infected with Aspergillus fumigatus IAM 2034; conditions: IAM2034, 480 h; for responders at 12.5 mg/kg: 12.5 mg/kg iv; for responders at 12.5 mg/kg / responders at 25 mg/kg / responders at 50 mg/kg: 20th day post-infection, read-out: S/T (No. of survivors/tested) (converted); for responders at 25 mg/kg: 25 mg/kg iv; for responders at 50 mg/kg: 50 mg/kg iv
Procedure: as §6

[12] = test system: Aspergillus fumigatus IAM 2034; experiment: MIC, two-fold agar dilution, A. fumigatus IAM 2034; type: cell-based; conditions: IAM2034
Procedure: as §1, §2, §3, §4

[13] = Candida albicans A9540, YMA pH 7.0, 28° C., 40 hours, read-out: MIC
[14] = Table 3, Candida albicans A9540, YMA, read-out: MIC Ca-4
[15] = Table 3, Trichophyton mentagrophytes #4329, YMA, read-out: MIC TM-4
[16] = Trichophyton mentagrophytes #4329, YMA pH 7.0, 28° C., 60 hours, read-out: MIC
[17] = Cryptococcus neoformans IAM 4514, YMA pH 7.0, 28° C., 40 hours, read-out: MIC
[18] = Table 3, Cryptococcus neoformans IAM 4514, YMA, read-out: MIC Cn-2
[19] = 480 h, Table 3, Candida albicans A9540, iv, read-out: PD50 (mice) Ca-4
[20] = Candida albicans, A9540, 480 h, Table 2, C. albicans, mice, iv, 95% confidence limits in parentheses, read-out: PD50 (50% protection dose)
[21] = Aspergillus fumigatus, A. fumigatus, mice
[22] = Aspergillus fumigatus, Table 2, A. fumigatus, mice, iv, 95% confidence limits in parentheses, read-out: PD50 (50% protection dose)
[23] = Table 3, Aspergillus fumigatus IAM 2034, iv, read-out: PD50 (mice) Af-3
[24] = Aspergillus fumigatus IAM 2034, YMA pH 7.0, 28° C., 40 hours, read-out: MIC
[25] = Table 3, Aspergillus fumigatus IAM 2034, YMA, read-out: MIC Af-3
[26] = Candida albicans, A9540, in Mus musculus, iv, 480 h, read-out: S/T (No. of survivors/tested)

Compound | MIC (Candida albicans A9540 [1]; [13]) | MIC (Candida albicans A9540 [1]; [14]) | MIC [2, 15] | MIC [2, 16] | MIC (Candida albicans 83-2-14) | MIC [3] | MIC [4] | MIC [5] | MIC [6, 17] | MIC [6, 18] | MIC [7] | MIC [8] | MIC [9] | MIC (Candida tropicalis 85-8) | ED50 (Candida albicans A9540 [10]; [19]) | ED50 (Candida albicans A9540 [10]; [20]) | responders at 12.5 mg/kg [11, 21] | responders at 25 mg/kg [11, 21] | responders at 50 mg/kg [11, 21] | ED50 [11, 22] | other results
COc1cc(O)c2c(c1)C(=O)c1c(cc3c(c1O)-c1c(cc(C)c(C(=O)N[C@H](CO)C(=O)O)c1O)[C@H](O[C@@H]1O[C@H](C)[C@H](N(C)C#N)[C@H](O[C@@H]4OC[C@@H](O)[C@H](O)[C@H]4O)[C@H]1O)[C@H]3O)C2=O [KHM-3, 4'-Cyanooradimicin FA-1] | 6.3 µg/mL (≈ 7.14 µM) | 6.3 µg/mL (≈ 7.14 µM) | 50 µg/mL (≈ 56.7 µM) | 50 µg/mL (≈ 56.7 µM) | 6.3 µg/mL (≈ 7.14 µM) | 3.1 µg/mL (≈ 3.52 µM) | 6.3 µg/mL (≈ 7.14 µM) | 1.6 µg/mL (≈ 1.81 µM) | 6.3 µg/mL (≈ 7.14 µM) | 6.3 µg/mL (≈ 7.14 µM) | 12.5 µg/mL (≈ 14.2 µM) | 6.3 µg/mL (≈ 7.14 µM) | 6.3 µg/mL (≈ 7.14 µM) | 12.5 µg/mL (≈ 14.2 µM) | > 50 mg/kg | > 50 mg/kg | 0% | 0% | 0% | > 50 mg/kg | responders at 12.5 mg/kg (Candida albicans A9540 [10]; Candida albicans, A9540, 480 h, C. albicans, mice, 12.5 mg/kg iv, 20th day post-infection, read-out: S/T (No. of survivors/tested) (converted)): 0%; responders at 25 mg/kg (Candida albicans A9540 [10]; Candida albicans, A9540, 480 h, C. albicans, mice, 25 mg/kg iv, 20th day post-infection, read-out: S/T (No. of survivors/tested) (converted)): 0%; responders at 50 mg/kg (Candida albicans A9540 [10]; Candida albicans, A9540, 480 h, C. albicans, mice, 50 mg/kg iv, 20th day post-infection, read-out: S/T (No. of survivors/tested) (converted)): 40%; ED50 [11, 23]: > 50 mg/kg; MIC [12, 24]: 25 µg/mL (≈ 28.4 µM); MIC [12, 25]: 25 µg/mL (≈ 28.4 µM)
COc1cc(O)c2c(c1)C(=O)c1c(cc3c(c1O)-c1c(cc(C)c(C(=O)N[C@H](CO)C(=O)O)c1O)[C@H](O[C@@H]1O[C@H](C)[C@H](N(C)N=O)[C@H](O[C@@H]4OC[C@@H](O)[C@H](O)[C@H]4O)[C@H]1O)[C@H]3O)C2=O [KHM-5, 4'-N-Nitrosopradimicin FA-1] | 6.3 µg/mL (≈ 7.11 µM) | 6.3 µg/mL (≈ 7.11 µM) | 6.3 µg/mL (≈ 7.11 µM) | 6.3 µg/mL (≈ 7.11 µM) | 6.3 µg/mL (≈ 7.11 µM) | 3.1 µg/mL (≈ 3.5 µM) | 6.3 µg/mL (≈ 7.11 µM) | 3.1 µg/mL (≈ 3.5 µM) | 3.1 µg/mL (≈ 3.5 µM) | 3.1 µg/mL (≈ 3.5 µM) | 12.5 µg/mL (≈ 14.1 µM) | 3.1 µg/mL (≈ 3.5 µM) | 6.3 µg/mL (≈ 7.11 µM) | 12.5 µg/mL (≈ 14.1 µM) | > 50 mg/kg | > 50 mg/kg | 0% | 0% | 40% | > 50 mg/kg | responders at 12.5 mg/kg (Candida albicans A9540 [10]; [26]): 20%; responders at 25 mg/kg (Candida albicans A9540 [10]; [26]): 0%; responders at 50 mg/kg (Candida albicans A9540 [10]; [26]): 40%; ED50 [11, 23]: > 50 mg/kg; MIC [12, 24]: 3.1 µg/mL (≈ 3.5 µM); MIC [12, 25]: 3.1 µg/mL (≈ 3.5 µM)
